Measured values reported in ChEMBL document CHEMBL3286170, “Design, synthesis and antimycobacterial activity evaluation of natural oridonin derivatives” (2014).
Values after ≈ are worked out from the molar mass of the structure shown.

Experiments:
Type in all cases: functional
Mycolicibacterium phlei = experiment: Antimycobacterial activity against Mycobacterium phlei ATCC 355 after 1 day by alamar blue assay; conditions: ATCC 355, 24 h
[1] = test system: Mycolicibacterium smegmatis; experiment: Antimycobacterial activity against Mycobacterium smegmatis ATCC 19420 after 1 day; conditions: ATCC 19420, 24 h
Mycobacterium marinum = experiment: Antimycobacterial activity against Mycobacterium marinum ATCC 927 after 7 days; conditions: ATCC 927, 168 h

For C=C1C(=O)[C@@]23C(=O)O[C@H]4CCC(C)(C)[C@H]5[C@H](O)OC[C@@]45[C@@H]2CC[C@@H]1[C@H]3O, the MIC (Mycolicibacterium phlei) was 32 µg/mL (≈ 88.3 µM).
Molecule C=C1C(=O)[C@@]23C(=O)O[C@H]4CCC(C)(C)[C@H]5C(=O)OC[C@@]45[C@@H]2CC[C@@H]1[C@H]3O has an MIC (Mycolicibacterium phlei) of 16 µg/mL (≈ 44.4 µM).
With C=C1C(=O)[C@@]23C(=O)O[C@H]4CCC(C)(C)[C@H]5[C@H](O)OC[C@@]45[C@@H]2CC[C@@H]1[C@H]3OC(C)=O the MIC (Mycolicibacterium phlei) was 32 µg/mL (≈ 79.1 µM).
C=C1C(=O)[C@@]23C(=O)O[C@H]4CCC(C)(C)[C@H]5[C@H](O)OC[C@@]45[C@@H]2CC[C@@H]1[C@H]3OC(=O)c1ccc(C(F)(F)F)cc1 was tested, and the MIC (Mycolicibacterium phlei) was 8 µg/mL (≈ 15 µM), the MIC [1] was 16 µg/mL (≈ 29.9 µM) and the MIC (Mycobacterium marinum) was 16 µg/mL (≈ 29.9 µM).
For C=C1C(=O)[C@]23[C@H](OC(=O)C4CCCCC4)[C@H]1CC[C@H]2[C@@]12CO[C@]3(O)[C@@H](O)[C@@H]1C(C)(C)CC[C@@H]2O, the MIC (Mycolicibacterium phlei) was 8 µg/mL (≈ 16.9 µM).
C=C1C(=O)[C@]23[C@H](OC(=O)C45CC6CC(CC(C6)C4)C5)[C@H]1CC[C@H]2[C@@]12CO[C@]3(O)[C@@H](O)[C@@H]1C(C)(C)CC[C@@H]2O was tested, and the MIC (Mycolicibacterium phlei) was 16 µg/mL (≈ 30.4 µM).
C=C1C(=O)[C@]23[C@H](OC(=O)CCCCCCC)[C@H]1CC[C@H]2[C@@]12CO[C@]3(O)[C@@H](O)[C@@H]1C(C)(C)CC[C@@H]2O was tested, and the MIC (Mycolicibacterium phlei) was 2 µg/mL (≈ 4.08 µM), the MIC [1] was 16 µg/mL (≈ 32.6 µM) and the MIC (Mycobacterium marinum) was 16 µg/mL (≈ 32.6 µM).
Work on C=C1C(=O)[C@]23[C@H](OC(=O)c4ccc(F)cc4)[C@H]1CC[C@H]2[C@@]12CO[C@]3(O)[C@@H](O)[C@@H]1C(C)(C)CC[C@@H]2O yielded an MIC (Mycolicibacterium phlei) of 32 µg/mL (≈ 65.8 µM).
For C=C1C(=O)[C@]23[C@H](OC(=O)c4ccc(C(F)(F)F)cc4)[C@H]1CC[C@H]2[C@@]12CO[C@]3(O)[C@@H](O)[C@@H]1C(C)(C)CC[C@@H]2O, the MIC (Mycolicibacterium phlei) was 16 µg/mL (≈ 29.8 µM).
C=C1C(=O)[C@]23[C@H](OC(=O)c4cccnc4)[C@H]1CC[C@H]2[C@@]12CO[C@]3(O)[C@@H](O)[C@@H]1C(C)(C)CC[C@@H]2O was tested, and the MIC (Mycolicibacterium phlei) was 16 µg/mL (≈ 34.1 µM).
Molecule C=C1C(=O)[C@]23[C@H](OC(=O)Cc4c[nH]c5ccccc45)[C@H]1CC[C@H]2[C@@]12CO[C@]3(O)[C@@H](O)[C@@H]1C(C)(C)CC[C@@H]2O has an MIC (Mycolicibacterium phlei) of 32 µg/mL (≈ 61.3 µM).
In the case of C=C1C(=O)[C@]23[C@H](OC(=O)c4cnccn4)[C@H]1CC[C@H]2[C@@]12CO[C@]3(O)[C@@H](O)[C@@H]1C(C)(C)CC[C@@H]2O, the MIC (Mycolicibacterium phlei) is reported as 4 µg/mL (≈ 8.5 µM), the MIC [1] is reported as 32 µg/mL (≈ 68 µM) and the MIC (Mycobacterium marinum) is reported as 32 µg/mL (≈ 68 µM).
C=C1C(=O)[C@]23[C@H](OC(=O)/C=C/c4ccccc4)[C@H]1CC[C@H]2[C@@]12CO[C@]3(O)[C@@H](O)[C@@H]1C(C)(C)CC[C@@H]2O showed an MIC (Mycolicibacterium phlei) of 1 µg/mL (≈ 2.02 µM), an MIC [1] of 8 µg/mL (≈ 16.2 µM) and an MIC (Mycobacterium marinum) of 8 µg/mL (≈ 16.2 µM).
In the case of C=C1C(=O)[C@]23[C@H](OC(=O)/C=C/c4ccc(F)cc4)[C@H]1CC[C@H]2[C@@]12CO[C@]3(O)[C@@H](O)[C@@H]1C(C)(C)CC[C@@H]2O, the MIC (Mycolicibacterium phlei) is reported as 2 µg/mL (≈ 3.9 µM), the MIC [1] is reported as 4 µg/mL (≈ 7.8 µM) and the MIC (Mycobacterium marinum) is reported as 8 µg/mL (≈ 15.6 µM).
With C=C1C(=O)[C@]23[C@H](OC(=O)/C=C/c4ccc(OC)cc4)[C@H]1CC[C@H]2[C@@]12CO[C@]3(O)[C@@H](O)[C@@H]1C(C)(C)CC[C@@H]2O the MIC (Mycolicibacterium phlei) was 0.5 µg/mL (≈ 0.953 µM), the MIC [1] was 4 µg/mL (≈ 7.62 µM) and the MIC (Mycobacterium marinum) was 4 µg/mL (≈ 7.62 µM).
Work on C=C1C(=O)[C@]23[C@H](OC(=O)/C=C/c4ccc(OC)c(OC)c4)[C@H]1CC[C@H]2[C@@]12CO[C@]3(O)[C@@H](O)[C@@H]1C(C)(C)CC[C@@H]2O yielded an MIC (Mycolicibacterium phlei) of 1 µg/mL (≈ 1.8 µM), an MIC [1] of 8 µg/mL (≈ 14.4 µM) and an MIC (Mycobacterium marinum) of 16 µg/mL (≈ 28.8 µM).
With C=C1C(=O)[C@@]23C(=O)O[C@H]4CCC(C)(C)[C@H]5[C@H](O)OC[C@@]45[C@@H]2CC[C@@H]1[C@H]3OC(=O)/C=C/c1ccccc1 the MIC (Mycolicibacterium phlei) was 2 µg/mL (≈ 4.06 µM), the MIC [1] was 16 µg/mL (≈ 32.5 µM) and the MIC (Mycobacterium marinum) was 32 µg/mL (≈ 65 µM).
For C=C1C(=O)[C@@]23C(=O)O[C@H]4CCC(C)(C)[C@H]5[C@H](O)OC[C@@]45[C@@H]2CC[C@@H]1[C@H]3OC(=O)/C=C/c1ccc(F)cc1, the MIC (Mycolicibacterium phlei) was 0.5 µg/mL (≈ 0.979 µM), the MIC [1] was 16 µg/mL (≈ 31.3 µM) and the MIC (Mycobacterium marinum) was 16 µg/mL (≈ 31.3 µM).
For C=C1C(=O)[C@@]23C(=O)O[C@H]4CCC(C)(C)[C@H]5[C@H](O)OC[C@@]45[C@@H]2CC[C@@H]1[C@H]3OC(=O)/C=C/c1ccc(OC)cc1, the MIC (Mycolicibacterium phlei) was 2 µg/mL (≈ 3.83 µM), the MIC [1] was 16 µg/mL (≈ 30.6 µM) and the MIC (Mycobacterium marinum) was 32 µg/mL (≈ 61.2 µM).
For C=C1C(=O)[C@@]23C(=O)O[C@H]4CCC(C)(C)[C@H]5C(=O)OC[C@@]45[C@@H]2CC[C@@H]1[C@H]3OC(C)=O, the MIC (Mycolicibacterium phlei) was 2 µg/mL (≈ 4.97 µM), the MIC [1] was 64 µg/mL (≈ 159 µM) and the MIC (Mycobacterium marinum) was 64 µg/mL (≈ 159 µM).
C=C1C(=O)[C@@]23C(=O)O[C@H]4CCC(C)(C)[C@H]5C(=O)OC[C@@]45[C@@H]2CC[C@@H]1[C@H]3OC(=O)c1ccc(F)cc1 was tested, and the MIC (Mycolicibacterium phlei) was 2 µg/mL (≈ 4.15 µM), the MIC [1] was 16 µg/mL (≈ 33.2 µM) and the MIC (Mycobacterium marinum) was 32 µg/mL (≈ 66.3 µM).
For C=C1C(=O)[C@@]23C(=O)O[C@H]4CCC(C)(C)[C@H]5C(=O)OC[C@@]45[C@@H]2CC[C@@H]1[C@H]3OC(=O)/C=C/c1ccccc1, the MIC (Mycolicibacterium phlei) was 0.5 µg/mL (≈ 1.02 µM), the MIC [1] was 4 µg/mL (≈ 8.15 µM) and the MIC (Mycobacterium marinum) was 4 µg/mL (≈ 8.15 µM).
C=C1C(=O)[C@@]23C(=O)O[C@H]4CCC(C)(C)[C@H]5C(=O)OC[C@@]45[C@@H]2CC[C@@H]1[C@H]3OC(=O)/C=C/c1ccc(F)cc1 showed an MIC (Mycolicibacterium phlei) of 0.5 µg/mL (≈ 0.983 µM), an MIC [1] of 4 µg/mL (≈ 7.87 µM) and an MIC (Mycobacterium marinum) of 4 µg/mL (≈ 7.87 µM).
For C=C1C(=O)[C@]23[C@H](O)[C@H]1CC[C@H]2[C@@]12CO[C@]3(O)[C@@H](O)[C@@H]1C(C)(C)CCC2=O, the MIC (Mycolicibacterium phlei) was 8 µg/mL (≈ 22.1 µM).
C=C1C(=O)[C@]23[C@H](OC(=O)C4CCCCC4)[C@H]1CC[C@H]2[C@@]12CO[C@]3(O)[C@@H](O)[C@@H]1C(C)(C)CCC2=O showed an MIC (Mycolicibacterium phlei) of 16 µg/mL (≈ 33.9 µM).
C=C1C(=O)[C@]23[C@H](OC(=O)c4ccc(C(F)(F)F)cc4)[C@H]1CC[C@H]2[C@@]12CO[C@]3(O)[C@@H](O)[C@@H]1C(C)(C)CCC2=O was tested, and the MIC (Mycolicibacterium phlei) was 16 µg/mL (≈ 29.9 µM).
C=C1C(=O)[C@]23[C@H](OC(=O)/C=C/c4ccc(F)cc4)[C@H]1CC[C@H]2[C@@]12CO[C@]3(O)[C@@H](O)[C@@H]1C(C)(C)CCC2=O gave an MIC (Mycolicibacterium phlei) of 8 µg/mL (≈ 15.7 µM), an MIC [1] of 16 µg/mL (≈ 31.3 µM) and an MIC (Mycobacterium marinum) of 64 µg/mL (≈ 125 µM).
Molecule C=C1C(=O)[C@]23[C@H](OC(=O)C4CCCCC4)[C@H]1CC[C@H]2[C@@]12CO[C@]3(O)[C@@H](O)[C@@H]1C(C)(C)CC[C@@H]2OC(C)=O has an MIC (Mycolicibacterium phlei) of 8 µg/mL (≈ 15.5 µM).
With C=C1C(=O)[C@]23[C@H](OC(=O)c4ccc(C(F)(F)F)cc4)[C@H]1CC[C@H]2[C@@]12CO[C@]3(O)[C@@H](O)[C@@H]1C(C)(C)CC[C@@H]2OC(C)=O the MIC (Mycolicibacterium phlei) was 16 µg/mL (≈ 27.7 µM).
C=C1C(=O)[C@]23[C@H](OC(=O)/C=C/c4ccc(F)cc4)[C@H]1CC[C@H]2[C@@]12CO[C@]3(O)[C@@H](O)[C@@H]1C(C)(C)CC[C@@H]2OC(C)=O was tested, and the MIC (Mycolicibacterium phlei) was 8 µg/mL (≈ 14.4 µM), the MIC [1] was 16 µg/mL (≈ 28.8 µM) and the MIC (Mycobacterium marinum) was 64 µg/mL (≈ 115 µM).
Work on C=C1C(=O)[C@]23[C@H](O)[C@H]1CC[C@H]2[C@@]12CO[C@@]3(O)[C@@H](O)[C@@H]1C(C)(C)CC[C@@H]2OC(C)=O [LASIOKAURIN] yielded an MIC (Mycolicibacterium phlei) of 1 µg/mL (≈ 2.46 µM), an MIC [1] of 16 µg/mL (≈ 39.4 µM) and an MIC (Mycobacterium marinum) of 32 µg/mL (≈ 78.7 µM).
Work on C=C1C(=O)[C@]23[C@H](O)[C@H]1CC[C@H]2[C@@]12CO[C@]3(O)[C@@H](O)[C@@H]1C(C)(C)CC[C@@H]2O [ORIDONIN] yielded an MIC (Mycolicibacterium phlei) of 16 µg/mL (≈ 43.9 µM), an MIC [1] greater than 64 µg/mL and an MIC (Mycobacterium marinum) greater than 64 µg/mL.
CN[C@@H]1[C@H](O[C@H]2[C@H](O[C@H]3[C@H](O)[C@@H](O)[C@H](N=C(N)N)[C@@H](O)[C@@H]3N=C(N)N)O[C@@H](C)[C@]2(O)C=O)O[C@@H](CO)[C@H](O)[C@H]1O [STREPTOMYCIN] was tested, and the MIC (Mycolicibacterium phlei) was 0.5 µg/mL (≈ 0.86 µM), the MIC [1] was 0.125 µg/mL (≈ 0.215 µM) and the MIC (Mycobacterium marinum) was 0.5 µg/mL (≈ 0.86 µM).
